Source: US11926574B2, “Dimethoxyphenylalkylamine activators of serotonin receptors” (Entheogenix Biosciences, Inc., priority 2021, dated 2024)
Where a name gives a salt, the structure may show the parent alone.

molecular target: 5HT2A (Homo sapiens, UniProt P28223); assay: 5HT2A Activity (% Max Activation @ 0.3 uM); assay type: cell-based
Sequence (P28223 whole entry): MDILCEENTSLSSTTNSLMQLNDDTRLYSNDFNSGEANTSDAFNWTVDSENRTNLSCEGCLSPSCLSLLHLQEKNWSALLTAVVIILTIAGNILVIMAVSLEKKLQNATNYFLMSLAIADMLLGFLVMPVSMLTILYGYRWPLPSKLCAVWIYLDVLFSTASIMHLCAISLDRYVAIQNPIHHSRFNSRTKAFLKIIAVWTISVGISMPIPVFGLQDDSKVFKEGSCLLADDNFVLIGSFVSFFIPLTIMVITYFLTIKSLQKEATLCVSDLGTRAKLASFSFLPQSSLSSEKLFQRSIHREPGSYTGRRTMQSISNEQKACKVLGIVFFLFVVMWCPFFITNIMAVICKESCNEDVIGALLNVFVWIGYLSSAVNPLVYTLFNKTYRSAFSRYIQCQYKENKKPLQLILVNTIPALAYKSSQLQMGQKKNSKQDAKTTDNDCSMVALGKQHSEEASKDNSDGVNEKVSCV

Structure (SMILES)	Emax at 0.3 µM [%]
COc1ccc(OC)c(CCNCc2cc(C)ccc2Cl)c1 [Compound 2-4, N-(2-chloro-5-methylbenzyl)-2-(2,5-dimethoxyphenyl)ethan-1-amine]	67
COc1ccc(OC)c(CCNCc2cc(Cl)cc(Cl)c2)c1 [Compound 2-6, N-(3,5-dichlorobenzyl)-2-(2,5-dimethoxyphenyl)ethan-1-amine]	68
COc1ccc(OC)c(CCNCc2cccc(Cl)c2Cl)c1 [Compound 2-8, N-(2,3-dichlorobenzyl)-2-(2,5-dimethoxyphenyl)ethan-1-amine]	33
COc1ccc(OC)c(CCNCc2cc(C)cc([N+](=O)[O-])c2)c1 [Compound 2-9, 2-(2,5-dimethoxyphenyl)-N-(3-methyl-5-nitrobenzyl)ethan-1-amine]	5
COc1ccc(OC)c(CCNCc2cc(C)cc(Br)c2)c1 [Compound 2-10, N-(3-bromo-5-methylbenzyl)-2-(2,5-dimethoxyphenyl)ethan-1-amine]	79
COc1ccc(OC)c(CCNCc2cc(C)cc(I)c2)c1 [Compound 2-11, 2-(2,5-dimethoxyphenyl)-N-(3-iodo-5-methylbenzyl)ethan-1-amine]	76
COc1ccc(OC)c(CCNCc2cc(Cl)ccc2C)c1 [Compound 2-12, N-(5-chloro-2-methylbenzyl)-2-(2,5-dimethoxyphenyl)ethan-1-amine]	41
COc1ccc(OC)c(CCNCc2ccc(Cl)c(C)c2)c1 [Compound 2-14, N-(4-chloro-3-methylbenzyl)-2-(2,5-dimethoxyphenyl)ethan-1-amine]	1
COc1ccc(OC)c(CCNCc2cccc(Cl)c2C)c1 [Compound 2-15]	20
COc1ccc(OC)c(CCNCc2cccc(C)c2Cl)c1 [Compound 2-16, N-(2-chloro-3-methylbenzyl)-2-(2,5-dimethoxyphenyl)ethan-1-amine]	64
COc1cc(CCNCc2cc(C)cc(Cl)c2)c(OC)cc1C [Compound 2-18, N-(3-chloro-5-methylbenzyl)-2-(2,5-dimethoxy-4-methylphenyl)ethan-1-amine]	94
CCc1cc(OC)c(CCNCc2cc(C)cc(Cl)c2)cc1OC [Compound 2-19, N-(3-chloro-5-methylbenzyl)-2-(4-ethyl-2,5-dimethoxyphenyl)ethan-1-amine]	84
COc1cc(CCNCc2cc(C)cc(Cl)c2)c(OC)cc1F [Compound 2-20, N-(3-chloro-5-methylbenzyl)-2-(4-fluoro-2,5-dimethoxyphenyl)ethan-1-amine]	89
COc1cc(CCNCc2cc(C)cc(Cl)c2)c(OC)cc1Cl [Compound 2-21, 2-(4-chloro-2,5-dimethoxyphenyl)-N-(3-chloro-5-methylbenzyl)ethan-1-amine]	92
COc1cc(CCNCc2cc(C)cc(Cl)c2)c(OC)cc1Br [Compound 2-22, 2-(4-bromo-2,5-dimethoxyphenyl)-N-(3-chloro-5-methylbenzyl)ethan-1-amine]	85
COc1cc(CCNCc2cc(C)cc(Cl)c2)c(OC)cc1C#N [Compound 2-23, 4-(2-((3-chloro-5-methylbenzyl)amino)ethyl)-2,5-dimethoxybenzonitrile]	96
COc1cc(SC)c(OC)cc1CCNCc1cc(C)cc(Cl)c1 [Compound 2-24, N-(3-chloro-5-methylbenzyl)-2-(2,5-dimethoxy-4-(methylthio)phenyl)ethan-1-amine]	91
COc1cc([S+](C)[O-])c(OC)cc1CCNCc1cc(C)cc(Cl)c1 (stereo not shown) [Compound 2-25, N-(3-chloro-5-methylbenzyl)-2-(2,5-dimethoxy-4-(methylsulfinyl)phenyl)-ethan-1-amine]	95
COc1cc(S(C)(=O)=O)c(OC)cc1CCNCc1cc(C)cc(Cl)c1 [Compound 2-26, (3-chloro-5-methylbenzyl)-2-(2,5-dimethoxy-4-(methylsulfonyl)phenyl)ethan-1-amine]	95
COc1ccc(OC)c(CC(CO)NCc2cc(C)cc(Cl)c2)c1 (stereo not shown) [Compound 2-29, 2-((3-chloro-5-methylbenzyl)amino)-3-(2,5-dimethoxyphenyl)propan-1-ol]	27
COc1ccc(OC)c(C(O)CNCc2cc(C)cc(Cl)c2)c1 (stereo not shown) [Compound 2-30, 2-((3-chloro-5-methylbenzyl)amino)-1-(2,5-dimethoxyphenyl)ethan-1-ol]	80
COc1cc(N2CCOCC2)c(OC)cc1CCNCc1cc(C)cc(Cl)c1 [Compound 2-31, N-(3-chloro-5-methylbenzyl)-2-(2,5-dimethoxy-4-morpholinophenyl)ethan-1-amine]	41
COc1ccc(OC)c([C@@H](O)CNCc2cc(C)cc(Cl)c2)c1 [Compound 2-32, (R)-2-((3-chloro-5-methylbenzyl)amino)-1-(2,5-dimethoxyphenyl)ethan-1-ol]	83
COc1ccc(OC)c([C@H](O)CNCc2cc(C)cc(Cl)c2)c1 [Compound 2-33, (S)-2-((3-chloro-5-methylbenzyl)amino)-1-(2,5-dimethoxyphenyl)ethan-1-ol]	39
COc1cc([S@](C)(=N)=O)c(OC)cc1CCNCc1cc(C)cc(Cl)c1 [Compound 2-34, (R)-(4-(2-((3-chloro-5-methylbenzyl)amino)ethyl)-2,5-dimethoxyphenyl)(imino)(methyl)-16-sulfanone]	56
COc1cc([S@@](C)(=N)=O)c(OC)cc1CCNCc1cc(C)cc(Cl)c1 [Compound 2-35, (S)-(4-(2-((3-chloro-5-methylbenzyl)amino)ethyl)-2,5-dimethoxyphenyl)(imino)(methyl)-16-sulfanone]	50
COc1ccc(OC)c(CCNCc2cc(C)cc(C#N)c2)c1 [Compound 2-36, 3-(((2,5-dimethoxyphenethyl)amino)methyl)-5-methylbenzonitrile]	16
COc1ccc(OC)c([C@@H](O)CNCc2cc(C)cc(F)c2)c1 [Compound 2-41, (R)-1-(2,5-dimethoxyphenyl)-2-((3-fluoro-5-methylbenzyl)amino)ethan-1-ol hydrochloride]	74
